Assay results published in publication PMC13104648 (Acta Pharmaceutica Sinica. B, 2025).

Tests used:
[1] = system: CHO-hNTSR1 cells; assay: Electric cell-substrate impedance sensing; format: cell-based, Chinese hamster; conditions: 10 μmol/L; for maximum change factor (normalized resistance): 4000 Hz, n = 3 in duplicate
[2] = system: Sprague–Dawley rats; assay: Arterial blood pressure in anesthetized rats; conditions: 55 nmol/kg i.v.
[3] = system: rats; conditions: chronic neuropathic and inflammatory pain paradigms; cited from earlier work
[4] = system: 318 distinct 7TMRs; assay: PRESTO-Tango GPCRome panel; format: cell-based, human; conditions: 10 μmol/L
[5] = target: hNTSR1 (Gα13) (Homo sapiens, UniProt P30989); assay: BRET^2 G protein dissociation, allosteric modulator assay; format: cell-based; conditions: pre-treatment up to 100 μmol/L
[6] = target: NTSR1 (β-arrestin 2) (Homo sapiens, UniProt P30989); assay: BRET^2 βarr recruitment, allosteric modulator assay; format: cell-based; conditions: pre-treatment up to 100 μmol/L
[7] = target: NTSR1 (β-arrestin 1) (Homo sapiens, UniProt P30989); assay: as above; format: cell-based; conditions: pre-treatment up to 100 μmol/L
[8] = system: mice; conditions: cited from earlier work
[9] = anesthetized male rats, mean ± SEM
[10] = anesthetized male rats, mean ± SEM, n = 5

NTSR1 (β-arrestin 2), sequence (P30989 whole entry): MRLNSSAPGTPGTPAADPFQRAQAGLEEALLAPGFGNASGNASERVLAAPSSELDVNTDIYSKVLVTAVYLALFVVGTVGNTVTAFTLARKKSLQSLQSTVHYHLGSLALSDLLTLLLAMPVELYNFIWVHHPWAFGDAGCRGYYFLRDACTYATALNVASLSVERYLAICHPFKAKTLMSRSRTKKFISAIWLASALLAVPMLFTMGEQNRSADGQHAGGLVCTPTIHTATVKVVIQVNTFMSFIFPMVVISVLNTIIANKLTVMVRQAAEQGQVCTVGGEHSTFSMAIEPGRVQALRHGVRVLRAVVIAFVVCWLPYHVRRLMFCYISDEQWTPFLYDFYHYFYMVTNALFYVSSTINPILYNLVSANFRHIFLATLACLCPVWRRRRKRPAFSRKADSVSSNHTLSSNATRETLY
hNTSR1 (Gα13), sequence (P30989 whole entry): as above
NTSR1 (β-arrestin 1), sequence (P30989 whole entry): as above

CCCCCCCCCCCCCCCC(=O)N[C@@H](C)C(=O)N[C@@H](CCCNC(=N)N)C(=O)N[C@@H](CCCCN)C(=O)N[C@@H](CCCCN)C(=O)N[C@@H](CO)C(=O)N[C@@H](CC(C)C)C(=O)N[C@@H](CCC(N)=O)C(=O)N[C@@H](CO)C(=O)N[C@@H](CC(C)C)C(=O)N[C@@H](CCC(N)=O)C(=O)N[C@@H](CO)C(=O)N[C@H](C(=O)N[C@@H](C)C(=O)N[C@@H](Cc1c[nH]cn1)C(N)=O)[C@@H](C)O [[Ala^13]PP-001]
time of maximum change factor post-stimulation [1]: 1962 s | maximum change factor (normalized resistance) ([1]; mean ± SEM): 1.06 ± 0.02 | change factor at 3000 s (50 min) post-stimulation ([1]; mean ± SEM, n = 3): 1.05 ± 0.03 | delay in hypotensive response [2]: 40 s | time of minimum ΔMABP post-injection [2]: 93 s | ΔMABP lower than that of PP-001 at 300 s [2]: 19 ± 5 mm Hg | minimum ΔMABP of first decline [2, 9]: −36 ± 4 mm Hg | ΔMABP 300 s post-injection [2, 9]: −44 ± 2 mm Hg | ΔMABP 140 s post-administration ([2]; n = 5): −31 ± 4 mm Hg

CCCCCCCCCCCCCCCC(=O)N[C@@H](C)C(=O)N[C@@H](CCCNC(=N)N)C(=O)N[C@@H](CCCCN)C(=O)N[C@@H](CCCCN)C(=O)N[C@@H](CO)C(=O)N[C@@H](CC(C)C)C(=O)N[C@@H](CCC(N)=O)C(=O)N[C@@H](CO)C(=O)N[C@@H](CC(C)C)C(=O)N[C@@H](CCC(N)=O)C(=O)N[C@@H](CO)C(=O)N[C@H](C(=O)N[C@H](C(=O)N[C@@H](Cc1c[nH]cn1)C(N)=O)C(C)C)[C@@H](C)O [PP-001]
reversing nociceptive behaviors [3]: effective in reversing nociceptive behaviors in rats | βarr2 recruitment across a panel of 318 distinct 7TMRs [4]: did not induce βarr2 recruitment | baseline-to-baseline timeframe [1]: 45 min | time of maximum change factor post-stimulation [1]: 1110 s | maximum change factor (normalized resistance) ([1]; mean ± SEM): 1.06 ± 0.01 | time at which the trace intercepts / returns to baseline ([1]; post-stimulation): 2700 s | delay in hypotensive response [2]: 40 s | time of minimum ΔMABP post-injection [2]: 105 s | minimum ΔMABP of first decline [2, 9]: −37 ± 4 mm Hg | ΔMABP 300 s post-injection [2, 9]: −25 ± 3 mm Hg

CCCCCCCCCCCCCCCC(=O)N[C@@H](C)C(=O)N[C@@H](C)C(=O)N[C@@H](CCCCN)C(=O)N[C@@H](CCCCN)C(=O)N[C@@H](CO)C(=O)N[C@@H](CC(C)C)C(=O)N[C@@H](CCC(N)=O)C(=O)N[C@@H](CO)C(=O)N[C@@H](CC(C)C)C(=O)N[C@@H](CCC(N)=O)C(=O)N[C@@H](CO)C(=O)N[C@H](C(=O)N[C@H](C(=O)N[C@@H](Cc1c[nH]cn1)C(N)=O)C(C)C)[C@@H](C)O [[Ala^2]PP-001]
resistance response profile [1]: completely inactive | change to MABP ([2]; n = 5): no change to MABP was observed

CCCCCCCCCCCCCCCC(=O)O [Palmitate, palmitate]
effect on potency or efficacy of NT, Gα13 [5]: not affected | effect on potency or efficacy of NT, βarr2 [6]: not affected | effect on potency or efficacy of NT, βarr1 [7]: not affected

COc1ccccc1C1CCN(c2nc(C3(F)CC3)nc3ccc(N(C)CCO)cc23)CC1 [SBI-553]
hypotension [8]: does not induce hypotension in mice

CC[C@H](C)[C@H](NC(=O)[C@H](Cc1ccc(O)cc1)NC(=O)[C@@H]1CCCN1C(=O)[C@H](CCCNC(=N)N)NC(=O)[C@@H](N)CCCNC(=N)N)C(=O)N[C@@H](CC(C)C)C(=O)O [NT(8-13), Neurotensin (8-13), reference compound]
ΔMABP 20 s post-injection [2, 10]: −29 ± 3 mm Hg | ΔMABP 75 s post-injection [2, 10]: −7 ± 3 mm Hg | ΔMABP 200 s post-injection [2, 10]: −28 ± 6 mm Hg
